Molecular target: T1, VEGFR2 (Homo sapiens, UniProt P35968)
T1 construct: host or cells: HUVEC
Assay: VEGFR2 Phospho ELISA assay in HUVEC, VEGF stimulated
Assay type: cell-based
Details: 1 hour compound, 50 ng/mL VEGF 10 minutes
Experimental: Adult human umbilical vein endothelial cells (HUVEC) (Cat#CC-2519, Lonza) were seeded into clear-bottom, TC treated 12 well plates (Cat #665180, Greiner Bio-One) in EGM-2 (Cat#CC-3162, Lonza) at 180,000 cells/well (volume 1 mL), and the plates incubated at 37° C. and 5% CO2 for 6 hours. The media was replaced with EBM-2 (Cat #CC-3156, Lonza)+0.1% BSA (Cat#A8412, Sigma) and cells incubated for a further period (overnight at 37° C. and 5% CO2).
96 well Maxisorp immuno plates (Cat #439454, Nunc) were coated with 100 μL of Total VEGFR^2 capture antibody (Part #841434, Human Total VEGFR^2/FLT4 ELISA Kit, Cat #DYC1780, R&D Systems), or Phospho VEGFR^2 Capture antibody (Part #841419, Human Phospho VEGFR^2/FLT4 ELISA Kit, Cat#DYC1766, R&D Systems). The plates were covered and incubated at room temperature overnight.
The coating antibody was flicked out and the plates washed three times with Wash Buffer (Phosphate buffered saline (137 mM NaCl, […], […], […], pH 7.2-7.4), 0.05% Tween 20). 300 μL of Blocking buffer (1% v/v BSA (Cat#A8412, Sigma) in PBS) was then added to wells and plate incubated for 2 hours at room temperature. Blocking solution is flicked out and plates washed three times and tapped dry.
Compound dilution series were prepared in EBM-2 (Cat #CC-3156, Lonza)+0.1% BSA (Cat#A8412, Sigma) with constant 0.1% DMSO concentration. 427.5 μL of sample or vehicle control was added to the cell monolayers. Cells are treated for 1 hour at 37° C. and 5% CO2. 50 ng/mL Recombinant human VEGF (Cat #293-VC, R & D Systems) added to wells and plates incubated for an additional 10 minutes at 37° C. and 5% CO2.
The media and compounds were removed and the cell monolayer washed once in Dulbecco's Phosphate Buffered Saline (Cat #21600-044, Invitrogen). 130 μL of Lysis buffer added to wells and cell lysate harvested and transferred to tubes and stored on ice. Complete lysis buffer was prepared by adding 10 μL Protease Inhibitor Cocktail (Cat #P8340, Sigma-Aldrich), 10 μL PMSF (Phenylmethanesulfonyl fluoride, Cat #P7626, Sigma-Aldrich, prepared as 500 mM DMSO stock) per 1 mL of Phosphosafe™ Extraction Reagent (Cat #71296, Merck).
The harvested samples were then diluted 1:2 in IC Diluent #12 (1% NP-40, […] (pH 8.0), 137 mM NaCl, 10% glycerol, 2 mM EDTA, 1 mM activated sodium orthovanadate) and 100 μL transferred to the Total and Phospho VEGFR^2 coated, blocked and washed 96 well plates and incubated for 2 hours at room temperature. The plates were then washed three times in wash buffer as described above and tapped dry.
For detection of Total VEGFR^2100 μL of Detection antibody (Total VEGFR^2 Detection Antibody Part#841435 in Total VEGFR^2 kit) diluted in IC Diluent #14 (20 mM Tris, […], 0.05% Tween20, 0.1% BSA) was added to wells and the plate incubated for 2 hours at room temperature. The plate was then washed three times in wash buffer and tapped dry. 100 μL of streptavidin-HPR diluted in IC diluent #14 Streptavidin-HRP, Part #890803 in Total VEGFR^2 kit) was added to wells and incubated at room temperature for 20 minutes followed by washing as described above. 100 μL Substrate solution (3,3′,5,5′-Tetramethylbenzidine (TMB) Liquid Substrate System for ELISA, Cat #T0440, Sigma-Aldrich) was added and the plate incubated for 20 minutes in the dark at room temperature followed by the addition of 50 μL stop solution (2 M H2SO4).
Total VEGFR^2 levels were quantified using a Multiskan Ascent plate reader and Ascent software fitted with 450 nm filter.
For detection of Phospho VEGFR^2, 100 μL of Detection antibody (Anti-Phospho-Tyrosine-HRP Detection Antibody, Part #841403 in Phospho VEGFR^2 kit) was diluted in IC Diluent 14 (20 mM Tris, […], 0.05% Tween20, 0.1% BSA), was added to the wells and the plate incubated for 2 hours at room temperature. The plate was then washed three times in wash buffer as described above and tapped dry. […]

T1 sequence (P35968 20-1356): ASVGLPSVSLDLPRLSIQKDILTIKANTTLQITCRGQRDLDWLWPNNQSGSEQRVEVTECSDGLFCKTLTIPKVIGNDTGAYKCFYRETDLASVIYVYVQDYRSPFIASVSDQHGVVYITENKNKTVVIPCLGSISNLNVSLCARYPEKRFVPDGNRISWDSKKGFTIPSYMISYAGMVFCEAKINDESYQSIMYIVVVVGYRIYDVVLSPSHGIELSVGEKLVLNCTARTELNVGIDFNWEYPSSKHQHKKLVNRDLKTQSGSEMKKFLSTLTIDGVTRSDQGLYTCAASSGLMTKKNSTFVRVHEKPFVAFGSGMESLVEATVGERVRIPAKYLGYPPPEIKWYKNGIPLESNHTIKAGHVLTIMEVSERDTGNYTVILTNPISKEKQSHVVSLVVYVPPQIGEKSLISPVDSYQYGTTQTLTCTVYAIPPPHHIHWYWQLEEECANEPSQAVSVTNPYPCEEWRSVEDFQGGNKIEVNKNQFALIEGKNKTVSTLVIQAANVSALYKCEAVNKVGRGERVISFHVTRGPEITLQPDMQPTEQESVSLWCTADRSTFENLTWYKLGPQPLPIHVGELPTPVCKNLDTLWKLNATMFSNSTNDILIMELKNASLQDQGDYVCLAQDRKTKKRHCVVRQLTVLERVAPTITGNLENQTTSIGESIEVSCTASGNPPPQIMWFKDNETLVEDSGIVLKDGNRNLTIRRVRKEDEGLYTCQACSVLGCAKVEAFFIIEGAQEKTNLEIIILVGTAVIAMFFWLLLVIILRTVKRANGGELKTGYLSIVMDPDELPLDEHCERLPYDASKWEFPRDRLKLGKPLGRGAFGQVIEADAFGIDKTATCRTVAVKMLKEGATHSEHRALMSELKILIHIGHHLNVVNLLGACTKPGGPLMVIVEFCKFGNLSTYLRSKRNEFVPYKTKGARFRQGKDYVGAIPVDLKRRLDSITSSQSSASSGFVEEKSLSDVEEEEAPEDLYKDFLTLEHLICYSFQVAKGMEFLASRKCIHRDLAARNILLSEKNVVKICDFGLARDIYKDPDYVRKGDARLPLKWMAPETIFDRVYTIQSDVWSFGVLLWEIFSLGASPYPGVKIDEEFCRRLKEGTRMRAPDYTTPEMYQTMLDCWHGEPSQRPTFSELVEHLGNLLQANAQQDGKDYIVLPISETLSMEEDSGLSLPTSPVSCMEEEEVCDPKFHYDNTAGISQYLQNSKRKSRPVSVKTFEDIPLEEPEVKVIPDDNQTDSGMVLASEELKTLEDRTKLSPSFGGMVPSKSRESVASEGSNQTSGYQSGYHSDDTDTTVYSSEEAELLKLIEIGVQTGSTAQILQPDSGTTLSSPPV

Row | SMILES | IC50 [nM]
1 | Cc1cnc(Nc2ccc(N3CCNCC3)cc2)nc1CCc1ccccc1CC(N)=O [Compound 2, 2-(2-(2-(5-methyl-2-((4-(piperazin-1-yl)phenyl)amino)pyrimidin-4-yl)ethyl)phenyl)acetamide] | 4400
2 | Cc1cnc(Nc2ccc(C3CCNCC3)nc2)nc1CCc1ccccc1CC(N)=O [Compound 4, 2-(2-(2-(5-methyl-2-((6-(piperidin-4-yl)pyridin-3-yl)amino)pyrimidin-4-yl)ethyl)phenyl)acetamide] | > 10000
3 | CC(N)c1ccc(Nc2ncc(C(F)(F)F)c(CCc3ccccc3CC(N)=O)n2)cc1 (stereo not drawn) [Compound 18, 2-(2-(2-(2-(4-(1-aminoethyl)phenylamino)-5-(trifluoromethyl)pyrimidin-4-yl)ethyl)phenyl)acetamide] | 2550
4 | Cc1cnc(Nc2cccnc2)nc1CCc1ccccc1CC(N)=O [Compound 24, 2-(2-(2-(5-methyl-2-(pyridin-3-ylamino)pyrimidin-4-yl)ethyl)phenyl)acetamide] | > 10000
5 | Cc1cnc(Nc2ccc(OC3CCNCC3)cc2)nc1CCc1ccccc1CC(N)=O [Compound 26, 2-(2-(2-(5-methyl-2-((4-(piperidin-4-yloxy)phenyl)amino)pyrimidin-4-yl)ethyl)phenyl)acetamide] | 4070
6 | Cc1cnc(Nc2cnn(C)c2)nc1CCc1ccccc1CC(N)=O [Compound 28, 2-(2-(2-(5-methyl-2-((1-methyl-^1H-pyrazol-4-yl)amino)pyrimidin-4-yl)ethyl)phenyl)acetamide] | 6840
7 | Cc1cnc(Nc2ccc(C3(N)COC3)cc2)nc1CCc1ccccc1CC(N)=O [Compound 31, 2-(2-(2-(2-(4-(3-aminooxetan-3-yl)phenylamino)-5-methylpyrimidin-4-yl)ethyl)phenyl)acetamide] | 5100
8 | Cc1cnc(Nc2cnn(C3CCNCC3)c2)nc1CCc1ccccc1CC(N)=O [Compound 33, 2-(2-(2-(5-Methyl-2-((1-(piperidin-4-yl)-^1H-pyrazol-4-yl)amino)pyrimidin-4-yl)ethyl)phenyl)acetamide] | > 10000
9 | CC(N)c1ccc(Nc2ncc(Cl)c(CCc3ccccc3CC(N)=O)n2)cc1 (stereo not drawn) [Compound 37, 2-(2-(2-(2-(4-(1-aminoethyl)phenylamino)-5-chloropyrimidin-4-yl)ethyl)phenyl)acetamide] | 200
